The structures appear in SMILES notation.

The species entered for this test is Oryctolagus cuniculus. Briefly: In vitro relaxation of precontracted rabbit aortic rings. In kind it is functional. The conditions noted are these: Aorta.
Consider `CC(=O)ON1C(=O)c2ccccc2S1(=O)=O`, for which it took 52.2 µM to reach a half-maximal effect (EC50).

In turn, `O=C1c2ccccc2S(=O)(=O)N1O` returned a half-maximal effective concentration (EC50) of 14.4 µM.

`O=S(=O)(NO)c1ccc(Cl)cc1` returned an EC50 of 1.36 µM.

Regarding `O=S(=O)(NO)c1ccccc1`, the EC50 turned out to be 1.03 µM.

Usually EC50 stands for the concentration needed to bring the measured effect to its halfway point.

For the origin of these results see ChEMBL document CHEMBL1128375, “Prodrugs of nitroxyl as potential aldehyde dehydrogenase inhibitors vis-a-vis vascular smooth muscle relaxants” (J Med Chem, 1995).
